How the values were obtained:
OVX rats [1] = assay: OVX rat model on osteoporosis: biomechanical test of bone strength; type: in vivo; set-up: key to Effect on bone strength, Femor. Meta., vs 1,25D3 / Effect on bone strength, L3, vs 1,25D3 / Effect on bone strength, Femor. Dia., vs 1,25D3: <: less effect than the reference dose of 1,25D3 (0.25 ug/kg); <=: less or the same effect as the reference dose of 1,25D3 (0.25 ug/kg); =: same effect as the reference dose of 1,25D3 (0.25 ug/kg); =>: same or better effect as the reference dose of 1,25D3 (0.25 ug/kg); >: better effect than the reference dose of 1,25D3 (0.25 ug/kg); conditions: oral 28 days
Protocol: FIG. 2 is a graphic illustration of the biomechanical test of the lumbal vertebrae, L3. The vertebral body cylinder were tested along the proximal-distal axis in a materials testing machine (Alwetron TCT 5, Lorentzen and Wettre, Stockholm, Sweden) at a constant deformation rate of 2 mm/min. During compression, load-deformation curves were recorded and stored on a PC (ProLinea 4/33, Compaq, USA). Fmax is the maximum point on the load deforming curve.
The rats were treated according to the OVX rat model described herein, and wherein the animal groups received treatment according to the same scheme as for FIG. 1. A statistical analysis is shown in the graphic illustration, cf. description for FIG. 1.
(§1) Pharmacological Methods—OVX Rat Model on Osteoporosis
(§2) To study bone anabolic properties and the effects of the vitamin D analogues of the present invention in preventing or treating demineralisation of the skeleton in vivo, a 4 weeks OVX rat model was used:
(§3) An ovariectomized rat model (OVX model), orally dosed for 28 days is useful for screening of vitamin D analogues. In this model ovariectomy produces alterations in the cancellous network identical to those seen in the human skeleton during ageing and the menopause. Besides this the model and the following analyses can be performed under very standardised conditions. 1α,25(OH)2D3 is used as a reference compound.
(§4) Female Sprague Dawley rats weighing approximately 130 g (40–45 days old) were purchased from MB, Ejby, Denmark. The animals were fed a commercial diet and allowed free access to food and drinking water. The animals were split into groups receiving differential treatment.
(§5) The animals were anaesthetised and ovariectomized through a dorsal incision.
(§6) Treatment of OVX animals was started 2 weeks after ovariectomy.
(§7) The animals were dosed orally for 28 days. The oral dosage was by gavage 0.1 ml/100 g bodyweight. The bodyweight of each animal was recorded every day prior to oral dosing. On day 7, 14, 21 and 28 the animals were housed separately for 24 hours in metabolic cages for collection of urine. Urine was frozen at −20° C. for later calcium measurement.
Left and right femur, left and right tibia, lumbal vertebrae 3 and 4 (L3 and L4) were removed and cleaned for all soft- and connecting tissue. Left femur, left and right tibia and L4 were dried in an oven at 50–60° C. for at least 24 hours and immediately hereafter weighed. The bones were burned in an oven at 800° C. for 4 hours, dissolved in 1N HCl, and analysed for calcium content in a Hitachi 911 autoanalyser. Right femur and L3 were kept in 0.9% NaCl and frozen at −20° C. for later biomechanical testing performed by Jesper Skovhus Thomsen and Lis Mosekilde at Aarhus University, measuring various biomechanical parameters.
(§8) Effect of Compound 145 compared to the reference dose of 1,25(OH)2D3 (1,25D3) (0.25 μg/kg) and compared to the OVX control group (shown in %) are shown in Tables 1 to 4.

OVX rats [2] = assay: OVX rat model on osteoporosis: urine calcium; type: in vivo; set-up: key to Effect on urine calcium vs 1,25D3: <: less effect than the reference dose of 1,25D3 (0.25 ug/kg); <=: less or the same effect as the reference dose of 1,25D3 (0.25 ug/kg); =: same effect as the reference dose of 1,25D3 (0.25 ug/kg); =>: same or better effect as the reference dose of 1,25D3 (0.25 ug/kg); >: better effect than the reference dose of 1,25D3 (0.25 ug/kg); conditions: oral 28 days
Description: as §1, §2, §3, §4, §5, §6, §7, §8

Effect on urine calcium vs 1,25D3 (OVX rats [2]; 1 μg/kg, MTR/16): No
Effect on urine calcium vs Ovx contr (OVX rats [2]; 1 μg/kg, MTR/16): −23%
Effect on urine calcium vs 1,25D3 (OVX rats [2]; 10 μg/kg, MTR/16): <<<
Effect on urine calcium vs Ovx contr (OVX rats [2]; 10 μg/kg, MTR/16): 104%
Effect on urine calcium vs 1,25D3 (OVX rats [2]; 10 μg/kg, MTR/23): <<<
Effect on urine calcium vs Ovx contr (OVX rats [2]; 10 μg/kg, MTR/23): 45%
Effect on urine calcium vs 1,25D3 (OVX rats [2]; 25 μg/kg, MTR/27): <<
Effect on urine calcium vs Ovx contr (OVX rats [2]; 25 μg/kg, MTR/27): 155%
Effect on urine calcium vs 1,25D3 (OVX rats [2]; 50 μg/kg, MTR/23): <=
Effect on urine calcium vs Ovx contr (OVX rats [2]; 50 μg/kg, MTR/23): 373%
Effect on urine calcium vs 1,25D3 (OVX rats [2]; 50 μg/kg, MTR/27): =
Effect on urine calcium vs Ovx contr (OVX rats [2]; 50 μg/kg, MTR/27): 750%
Effect on urine calcium vs 1,25D3 (OVX rats [2]; 75 μg/kg, MTR/27): >=
Effect on urine calcium vs Ovx contr (OVX rats [2]; 75 μg/kg, MTR/27): 777%
Effect on urine calcium vs 1,25D3 (OVX rats [2]; 100 μg/kg, MTR/23): <=
Effect on urine calcium vs Ovx contr (OVX rats [2]; 100 μg/kg, MTR/23): 463%
Compound: C=C1C(=CC=C2CCCC3(C)C2CCC3C(C)CSc2ccc(C(C)(C)O)cc2)CC(O)CC1O [Compound 145, 1(S),3(R)-Dihydroxy-20(R)-(4-((1-hydroxy-1-methyl)ethyl)phenylthiomethyl)-9,10-seco-pregna-5(Z),7(E),10(19)-triene]
Effect on bone strength, Femor. Dia., vs 1,25D3 (OVX rats [1]; 1 μg/kg, MTR/16): <=
Effect on bone strength, Femor. Meta., vs 1,25D3 (OVX rats [1]; 1 μg/kg, MTR/16): <
Effect on bone strength, L3, vs 1,25D3 (OVX rats [1]; 1 μg/kg, MTR/16): <
Effect on bone strength, Femor. Dia., vs 1,25D3 (OVX rats [1]; 10 μg/kg, MTR/16): =
Effect on bone strength, Femor. Meta., vs 1,25D3 (OVX rats [1]; 10 μg/kg, MTR/16): =
Effect on bone strength, L3, vs 1,25D3 (OVX rats [1]; 10 μg/kg, MTR/16): >
Effect on bone strength, Femor. Dia., vs 1,25D3 (OVX rats [1]; 10 μg/kg, MTR/23): <=
Effect on bone strength, Femor. Dia., vs Ovx contr (OVX rats [1]; 10 μg/kg, MTR/23): −5%
Effect on bone strength, Femor. Meta., vs 1,25D3 (OVX rats [1]; 10 μg/kg, MTR/23): <
Effect on bone strength, Femor. Meta., vs Ovx contr (OVX rats [1]; 10 μg/kg, MTR/23): 6%
Effect on bone strength, L3, vs 1,25D3 (OVX rats [1]; 10 μg/kg, MTR/23): =
Effect on bone strength, L3, vs Ovx contr (OVX rats [1]; 10 μg/kg, MTR/23): 23%
Effect on bone strength, Femor. Dia., vs 1,25D3 (OVX rats [1]; 25 μg/kg, MTR/27): >
Effect on bone strength, Femor. Dia., vs Ovx contr (OVX rats [1]; 25 μg/kg, MTR/27): 9%
Effect on bone strength, Femor. Meta., vs 1,25D3 (OVX rats [1]; 25 μg/kg, MTR/27): >
Effect on bone strength, Femor. Meta., vs Ovx contr (OVX rats [1]; 25 μg/kg, MTR/27): 39%
Effect on bone strength, L3, vs 1,25D3 (OVX rats [1]; 25 μg/kg, MTR/27): <=
Effect on bone strength, L3, vs Ovx contr (OVX rats [1]; 25 μg/kg, MTR/27): 27%
Effect on bone strength, Femor. Dia., vs 1,25D3 (OVX rats [1]; 50 μg/kg, MTR/23): =
Effect on bone strength, Femor. Dia., vs Ovx contr (OVX rats [1]; 50 μg/kg, MTR/23): −1%
Effect on bone strength, Femor. Meta., vs 1,25D3 (OVX rats [1]; 50 μg/kg, MTR/23): >
Effect on bone strength, Femor. Meta., vs Ovx contr (OVX rats [1]; 50 μg/kg, MTR/23): 43%
Effect on bone strength, L3, vs 1,25D3 (OVX rats [1]; 50 μg/kg, MTR/23): >
Effect on bone strength, L3, vs Ovx contr (OVX rats [1]; 50 μg/kg, MTR/23): 45%
Effect on bone strength, Femor. Dia., vs 1,25D3 (OVX rats [1]; 50 μg/kg, MTR/27): >
Effect on bone strength, Femor. Dia., vs Ovx contr (OVX rats [1]; 50 μg/kg, MTR/27): 5%
Effect on bone strength, Femor. Meta., vs 1,25D3 (OVX rats [1]; 50 μg/kg, MTR/27): >
Effect on bone strength, Femor. Meta., vs Ovx contr (OVX rats [1]; 50 μg/kg, MTR/27): 31%
Effect on bone strength, L3, vs 1,25D3 (OVX rats [1]; 50 μg/kg, MTR/27): <
Effect on bone strength, L3, vs Ovx contr (OVX rats [1]; 50 μg/kg, MTR/27): 22%
Effect on bone strength, Femor. Dia., vs 1,25D3 (OVX rats [1]; 75 μg/kg, MTR/27): >
Effect on bone strength, Femor. Dia., vs Ovx contr (OVX rats [1]; 75 μg/kg, MTR/27): 4%
Effect on bone strength, Femor. Meta., vs 1,25D3 (OVX rats [1]; 75 μg/kg, MTR/27): >>
Effect on bone strength, Femor. Meta., vs Ovx contr (OVX rats [1]; 75 μg/kg, MTR/27): 50%
Effect on bone strength, L3, vs 1,25D3 (OVX rats [1]; 75 μg/kg, MTR/27): =
Effect on bone strength, L3, vs Ovx contr (OVX rats [1]; 75 μg/kg, MTR/27): 38%
Effect on bone strength, Femor. Dia., vs 1,25D3 (OVX rats [1]; 100 μg/kg, MTR/23): =
Effect on bone strength, Femor. Dia., vs Ovx contr (OVX rats [1]; 100 μg/kg, MTR/23): −3%
Effect on bone strength, Femor. Meta., vs 1,25D3 (OVX rats [1]; 100 μg/kg, MTR/23): =
Effect on bone strength, Femor. Meta., vs Ovx contr (OVX rats [1]; 100 μg/kg, MTR/23): 21%
Effect on bone strength, L3, vs 1,25D3 (OVX rats [1]; 100 μg/kg, MTR/23): >
Effect on bone strength, L3, vs Ovx contr (OVX rats [1]; 100 μg/kg, MTR/23): 37%

Reference: patent publication US7071178B2, “Use of vitamin D-derivatives in the treatment of osteoporosis and related bone disorders, as well as novel vitamin D3-derivatives” (Leo Pharmaceutical Products, Ltd., priority 2000, dated 2006)
